# Reference: publication PMC4861708 (Frontiers in Cell and Developmental Biology, 2016)
# Where a SMILES comes first, the peptide text is derived from it. [ ]: non-standard residue; d: D form. The star is where a group is joined. Orn(α-tetramethylguanidino) = CN(C)C(=N[C@@H](CCCN)C(=O)*)N(C)C; Orn = NCCC[C@H](N)C(=O)O
# How the values were obtained:
# P. aeruginosa DSM 1117 = experiment: Transmission electron microscopy, morphological changes; assay type: cell-based, Pseudomonas aeruginosa; settings: 1 h
# Experimental: (§1) Peptide-bacteria mixtures were fixed (2% glutaraldehyde, 5 mmol/L CaCl2, 10 mmol/L MgCl2 in 0.1 mol/L sodium cacodylate buffer, pH 7.4) overnight at 4°C. […] Samples were rinsed with distilled water (5 × 10 min), incubated with aqueous uranylacetate (0.5% w/v) for 1 h at 4°C, washed with distilled water (3 × 10 min), and embedded in Epon. The hardened blocks were sectioned (50 nm) on a UCT ultramicrotome (Leica, Vienna, Austria), stained with uranyl acetate and lead citrate on an AC20 system (Leica), and visualized at a Tecnai 12 electron microscope (FEI, Eindhoven, The Netherlands) at 80 kV. Morphological effects were quantified on average for 25 cells per condition.
# E. coli DSM 1103 = experiment: as above; assay type: cell-based, Escherichia coli; settings: 1 h
# Experimental: as §1
structure (smiles),measurement,setting,value
"CC[C@H](C)[C@H](NC(=O)[C@H](CCCN)N=C(N(C)C)N(C)C)C(=O)N[C@@H](CCCN)C(=O)N[C@H](C(=O)N[C@@H](CCCN)C(=O)N[C@@H](CCCNC(=N)N)C(=O)N1CCC[C@H]1C(=O)N[C@H](C(=O)N[C@@H](Cc1ccc(O)cc1)C(=O)N[C@@H](CCCN)C(=O)N1CCC[C@H]1C(=O)N[C@@H](CCCNC(=N)N)C(=O)N1CCC[C@H]1C(=O)N[C@@H](CCCNC(=N)N)C(=O)N1CCC[C@H]1C(=O)N1CCC[C@H]1C(=O)N[C@@H](Cc1c[nH]cn1)C(=O)N1CCC[C@H]1C(=O)N[C@@H](CCCNC(=N)N)C(=O)N[C@@H](CC(C)C)C(=O)O)C(C)C)[C@@H](C)CC [Api795, gu-O(IO)2RPVYOPRPRPPHPRL-OH] ({Orn(α-tetramethylguanidino)}-I[Orn]I[Orn]RPVY[Orn]PRPRPPHPRL-OH)","DNA/ribosomes relocalization: +, starting",P. aeruginosa DSM 1117; 512 µg/mL,0%
same,"DNA/ribosomes relocalization: -, no",P. aeruginosa DSM 1117; 512 µg/mL,0%
same,"Membrane: b, broken",P. aeruginosa DSM 1117; 512 µg/mL,80%
same,"Membrane: i, intact",P. aeruginosa DSM 1117; 512 µg/mL,20%
same,"Membrane: r, ruptured",P. aeruginosa DSM 1117; 512 µg/mL,63%
same,"Ribosome clustering: +++, extremely clustered",P. aeruginosa DSM 1117; 512 µg/mL,93%
same,"Ribosome clustering: ++, clustered",P. aeruginosa DSM 1117; 512 µg/mL,7%
same,"Ribosome clustering: +, starting",P. aeruginosa DSM 1117; 512 µg/mL,0%
same,"Ribosome clustering: -, no",P. aeruginosa DSM 1117; 512 µg/mL,0%
same,Vesicle release,P. aeruginosa DSM 1117; 512 µg/mL,7%
same,"dissociated Fragments: +, small and thin",P. aeruginosa DSM 1117; 512 µg/mL,0%
same,"dissociated Fragments: -, no",P. aeruginosa DSM 1117; 512 µg/mL,87%
same,"dissociated Fragments: LV, large vesicles",P. aeruginosa DSM 1117; 512 µg/mL,0%
same,"membranes ruptured, % of the cells",P. aeruginosa DSM 1117; 512 µg/mL,80%
same,"membranes ruptured, % of the cells",P. aeruginosa DSM 1117; 4 × MIC,10%
same,"Cell: r, ruptured",E. coli DSM 1103; 8 µg/mL,0%
same,DNA/Ribosomes relocalized,E. coli DSM 1103; 8 µg/mL,0%
same,"Fragments: +++, long and thick",E. coli DSM 1103; 8 µg/mL,0%
same,"Fragments: ++, long and thin",E. coli DSM 1103; 8 µg/mL,23%
same,"Fragments: +, small and thin",E. coli DSM 1103; 8 µg/mL,63%
same,"Fragments: -, no",E. coli DSM 1103; 8 µg/mL,13%
same,"Fragments: LV, large vesicles",E. coli DSM 1103; 8 µg/mL,0%
same,"Membrane: i, intact",E. coli DSM 1103; 8 µg/mL,3%
same,"Membrane: w, wrinkled",E. coli DSM 1103; 8 µg/mL,97%
same,Vesicle release weak,E. coli DSM 1103; 8 µg/mL,30%
same,"Cell: r, ruptured",E. coli DSM 1103; 32 µg/mL,0%
same,DNA/Ribosomes relocalized,E. coli DSM 1103; 32 µg/mL,0%
same,"Fragments: +++, long and thick",E. coli DSM 1103; 32 µg/mL,0%
same,"Fragments: ++, long and thin",E. coli DSM 1103; 32 µg/mL,10%
same,"Fragments: +, small and thin",E. coli DSM 1103; 32 µg/mL,57%
same,"Fragments: -, no",E. coli DSM 1103; 32 µg/mL,33%
same,"Fragments: LV, large vesicles",E. coli DSM 1103; 32 µg/mL,0%
same,"Membrane: i, intact",E. coli DSM 1103; 32 µg/mL,7%
same,"Membrane: w, wrinkled",E. coli DSM 1103; 32 µg/mL,93%
same,Vesicle release weak,E. coli DSM 1103; 32 µg/mL,43%
same,"Cell: r, ruptured",E. coli DSM 1103; 128 µg/mL,0%
same,DNA/Ribosomes relocalized,E. coli DSM 1103; 128 µg/mL,0%
same,"Fragments: +++, long and thick",E. coli DSM 1103; 128 µg/mL,0%
same,"Fragments: ++, long and thin",E. coli DSM 1103; 128 µg/mL,30%
same,"Fragments: +, small and thin",E. coli DSM 1103; 128 µg/mL,53%
same,"Fragments: -, no",E. coli DSM 1103; 128 µg/mL,17%
same,"Fragments: LV, large vesicles",E. coli DSM 1103; 128 µg/mL,0%
same,"Membrane: i, intact",E. coli DSM 1103; 128 µg/mL,17%
same,"Membrane: w, wrinkled",E. coli DSM 1103; 128 µg/mL,83%
same,Vesicle release weak,E. coli DSM 1103; 128 µg/mL,47%
same,"Cell: r, ruptured",E. coli DSM 1103; 512 µg/mL,0%
same,DNA/Ribosomes relocalized,E. coli DSM 1103; 512 µg/mL,30%
same,"Fragments: +++, long and thick",E. coli DSM 1103; 512 µg/mL,0%
same,"Fragments: ++, long and thin",E. coli DSM 1103; 512 µg/mL,37%
same,"Fragments: +, small and thin",E. coli DSM 1103; 512 µg/mL,63%
same,"Fragments: -, no",E. coli DSM 1103; 512 µg/mL,0%
same,"Fragments: LV, large vesicles",E. coli DSM 1103; 512 µg/mL,0%
same,"Membrane: i, intact",E. coli DSM 1103; 512 µg/mL,33%
same,"Membrane: w, wrinkled",E. coli DSM 1103; 512 µg/mL,67%
same,Vesicle release weak,E. coli DSM 1103; 512 µg/mL,60%
